We go through 21 molecules from patent US5342947A, “Preparation of water soluble camptothecin derivatives” (Glaxo Inc., priority 1992, dated 1994).

Read-outs that look alike come from different tables or passages of the source.

In one series the test system is HT-29 human colon tumor. In words: Human Colorectal Adenocarcinoma HT-29 Xenograft in vivo Assay. The arrangement: species or system human tumor xenograft in female NU/NU mice. The conditions noted are these: for tumor wt day 50 / tumor wt day 14: s.c. twice a week for 5 weeks; for effect on tumor (stasis / regression): after 5 weeks of dosing, day 50 vs day 14, ratio 1 = stasis, <1 = regression. On the procedure:
Female NU/NU mice weighing 21±2 g, are used for this modified version of the test described by B. C. Giovanella, et al., Science, 246 1046 (1989). Control and test animals are injected subcutaneously in the sub-scapular region with a suspension of 10^6 viable HT-29 human colon tumor cells on day 0. Tumors are allowed to grow for 2 weeks prior to drug administration. For each drug, several doses are chosen based on its in vitro activity against topoisomerase I. Each dose level group contains 8 animals. The test compounds are prepared in either 0.1M acetate buffer, pH 5 (vehicle "a") or 87.5% phosphate buffered saline, 12.375% dimethylsulfoxide, and 0.125% Tween 80 (trademark of ICI America for polyoxyethylenesorbitan monooleate) (vehicle "b") and are administered subcutaneously twice a week for 5 weeks beginning on day 14. Doses are given on a mg/kg basis according to the mean body weight for each cage.
Tumor weight is calculated from two perpendicular caliper measurements of the tumor using the formula, tumor weight=length×width^2 […] in millimeters. For each animal, tumor weight is monitored over the course of the experiment. For each group, the results are expressed as the ratio of the mean tumor weight immediately after 5 weeks of treatment (day 50) divided by the mean tumor weight immediately before treatment (day 14). […] The criterion for antitumor activity is at least 50% inhibition of tumor growth after 5 weeks of dosing (day 50), giving a ratio of less than or equal to […].

The next series has as its target T1, topoisomerase Type I (Bos taurus, UniProt F1MN93).
T1 sequence (F1MN93 1-767): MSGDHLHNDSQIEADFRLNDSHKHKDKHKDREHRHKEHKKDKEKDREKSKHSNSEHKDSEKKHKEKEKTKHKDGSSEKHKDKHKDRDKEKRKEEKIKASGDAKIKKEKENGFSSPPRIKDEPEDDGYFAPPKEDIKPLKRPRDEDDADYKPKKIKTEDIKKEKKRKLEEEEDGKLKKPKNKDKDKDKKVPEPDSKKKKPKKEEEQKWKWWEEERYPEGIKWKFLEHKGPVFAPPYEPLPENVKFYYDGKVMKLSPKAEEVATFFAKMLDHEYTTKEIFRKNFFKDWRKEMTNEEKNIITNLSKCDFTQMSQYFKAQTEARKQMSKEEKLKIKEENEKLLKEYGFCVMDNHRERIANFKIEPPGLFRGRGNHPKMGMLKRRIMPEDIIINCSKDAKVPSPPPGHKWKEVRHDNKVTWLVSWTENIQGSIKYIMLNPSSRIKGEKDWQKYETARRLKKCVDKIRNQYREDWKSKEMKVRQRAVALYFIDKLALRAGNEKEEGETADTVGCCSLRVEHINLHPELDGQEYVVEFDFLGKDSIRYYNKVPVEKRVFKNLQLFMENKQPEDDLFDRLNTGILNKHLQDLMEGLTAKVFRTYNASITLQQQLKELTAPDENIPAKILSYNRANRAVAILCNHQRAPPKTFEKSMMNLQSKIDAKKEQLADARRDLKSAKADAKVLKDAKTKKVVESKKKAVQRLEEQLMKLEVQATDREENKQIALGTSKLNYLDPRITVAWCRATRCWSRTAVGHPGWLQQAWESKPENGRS
In words: Cleavable Complex in vitro Assay (topoisomerase Type I inhibitory activity). The series is classed as biochemical. From the text:
This assay performed according to the method described in Hsiang, Y. et al., J. Biol. Chem., 260:14873-14878 (1985), correlates well with in vivo anti-tumor activity of topoisomerase inhibitors in animal models of cancer, e.g., camptothecin and its analogs. See Hsiang et al., Cancer Research, 49:4385-4389 (1989) and Jaxel et al., Cancer Research, 49:1465-1469 (1989).
The term "IC50 " means the concentration of a compound of formula (I) at which 50% of the DNA substrate has been captured by topoisomerase I.

Another series has as its system leukemia (L-1210). The conditions noted are these: laboratory animals; cited from earlier work.
The test system of another series is certain solid tumors. The conditions noted are these: laboratory animals; cited from earlier work.
The conditions of series [1]: in words, background; cited from earlier work.
The conditions of series [2]: Wani et al., J. Med. Chem. 29, 2358 (1986) and 30, 2317 (1987); cited from earlier work.
Setting [3] is: Cleavable Complex Assay, read-out: Relative IC50 (concentration at which 50% of the DNA substrate has been captured by topoisomerase I).

With `CC[C@@]1(O)C(=O)OCc2c1cc1n(c2=O)Cc2c-1nc1cc3c(cc1c2CN1CCC1)OCCO3` [Example 22, 7-Azetidinomethylene-10, 11-ethylenedioxy-20(S)-camptothecin], the “tumor wt day 50 / tumor wt day 14” value in the series with HT-29 human colon tumor (12.0 mg/kg (optimal dose), vehicle a (0.1M acetate buffer, pH 5), vehicle control 20.0) came to 1.6. Regarding `CCC1(O)C(=O)OCc2c1cc1n(c2=O)Cc2c-1nc1cc3c(cc1c2CN1CCN(C)CC1)OCCO3` (racemic) [Example 10, 7-(4-methylpiperazinomethylene)-10, 11-ethylenedioxy-20(R,S)-camptothecin], at topoisomerase Type I (setting [3]), the IC50 was in the range of 500 to 1000 nM. In the case of `CCN(CC)Cc1c2c(nc3cc4c(cc13)OCCO4)-c1cc3c(c(=O)n1C2)COC(=O)[C@]3(O)CC` [Example 14, 7-Diethylaminomethylene-10, 11-ethylenedioxy-20(S)-camptothecin], in the series on HT-29 human colon tumor (2.0 mg/kg (optimal dose), vehicle a (0.1M acetate buffer, pH 5), vehicle control 20.0), the “tumor wt day 50 / tumor wt day 14” value was 2.0. For the molecule `CCC1(O)C(=O)OCc2c1cc1n(c2=O)Cc2c-1nc1cc3c(cc1c2CN1CCCCC1)OCCO3` (racemic) [Example 9, 7-Piperidinomethylene-10, 11-ethylenedioxy-20(R,S)-camptothecin], at topoisomerase Type I, the IC50 was in the range of 500 to 1000 nM. `CC[C@@]1(O)C(=O)OCc2c1cc1n(c2=O)Cc2cc3ccccc3nc2-1` [camptothecin, Camptothecin]: the “effectiveness in treatment of leukemia (L-1210)” value in the series with leukemia (L-1210) is listed as “effective”. For the same molecule, the “effectiveness in treatment of certain solid tumors” value in the series on certain solid tumors is “effective”. For `CCN(CC)Cc1c2c(nc3cc4c(cc13)OCCO4)-c1cc3c(c(=O)n1C2)COC(=O)C3(O)CC` (racemic) [Example 13, 7-Diethylaminomethylene-10, 11-ethylenedioxy-20(R,S)-camptothecin], on topoisomerase Type I, the IC50 was in the range of 500 to 1000 nM. Regarding `CC[C@@]1(O)C(=O)OCc2c1cc1n(c2=O)Cc2c-1nc1cc3c(cc1c2CN1CCOCC1)OCCO3` [Example 6, 7-Morpholinomethylene-10,11-ethylenedioxy-20(S)-camptothecin], in the series on HT-29 human colon tumor (1.0 mg/kg (optimal dose), vehicle b (PBS/DMSO/Tween 80), vehicle control 21.8), the “tumor wt day 50 / tumor wt day 14” value is 1.0. In addition, the “effect on tumor (stasis / regression)” value in the series with HT-29 human colon tumor was “tumor stasis”. Besides, the IC50 on topoisomerase Type I was less than 500 nM. Molecule `CCC1(O)C(=O)OCc2c1cc1n(c2=O)Cc2c-1nc1cc3c(cc1c2CN1CCCCC1)OCO3` (racemic) [Example 8, 7-Piperidinomethylene-10,11-methylenedioxy-20(R,S)-camptothecin] gave an IC50 on topoisomerase Type I greater than 2000 nM.

As for `CCC1(O)C(=O)OCc2c1cc1n(c2=O)Cc2c-1nc1cc3c(cc1c2CN1CCC1)OCO3` (racemic) [Example 19, 7-Azetidinomethylene-10, 11-methylenedioxy-20(R,S)-camptothecin], the IC50 against topoisomerase Type I lay within 1000 to 2000 nM. On to `CCC1(O)C(=O)OCc2c1cc1n(c2=O)Cc2c-1nc1cc3c(cc1c2CN1CCCC1)OCCO3` (racemic) [Example 7, 7-Pyrrolidinomethylene-10,11-ethylenedioxy-20(R,S)-camptothecin], for which the IC50 on topoisomerase Type I lay within 1000 to 2000 nM.

Consider `CC[C@@]1(O)C(=O)OCc2c1cc1n(c2=O)Cc2c-1nc1cc3c(cc1c2CN1CCN(C)CC1)OCCO3` [Example 11, 7-(4-methylpiperazinomethylene)-10, 11-ethylenedioxy-20(S)-camptothecin], for which the “tumor wt day 50 / tumor wt day 14” value in the series with HT-29 human colon tumor (9.0 mg/kg (optimal dose), vehicle a (0.1M acetate buffer, pH 5), vehicle control 20.0) was 0.6. Moreover, the “effect on tumor (stasis / regression)” value with HT-29 human colon tumor is “tumor regression”. Besides, the IC50 at topoisomerase Type I (setting [3]) was less than 500 nM.

In the case of `CCC1(O)C(=O)OCc2c1cc1n(c2=O)Cc2cc3cc4c(cc3nc2-1)OCO4` (centres unmarked) [10, 11-methylenedioxycamptothecin], in series [1], the “solubility in water / physiologically compatible, aqueous media” value was “as poor as camptothecin”. In series [2], the “potency relative to unsubstituted camptothecin” value was “more potent than unsubstituted camptothecin”. As to `CCC1(O)C(=O)OCc2c1cc1n(c2=O)Cc2c-1nc1cc3c(cc1c2CN(C)CCO)OCO3` (racemic) [Example 15, 7-N-Methylethanolaminomethylene-10, 11-methylenedioxy-20(R,S)-camptothecin], the IC50 against topoisomerase Type I is 1000 to 2000 nM. `CCC1(O)C(=O)OCc2c1cc1n(c2=O)Cc2c-1nc1cc3c(cc1c2CN(C)CCO)OCCO3` (racemic) [Example 16, 7-N-Methylethanolaminomethylene-10, 11-ethylenedioxy-20(R,S)-camptothecin] yielded an IC50 against topoisomerase Type I of 1000 to 2000 nM. In the case of `CC[C@@]1(O)C(=O)OCc2c1cc1n(c2=O)Cc2c-1nc1cc3c(cc1c2CN(C)C)OCO3` [Example 2, 7-Dimethylaminomethylene-10, 11-methylenedioxy-20(S)-camptothecin], the “tumor wt day 50 / tumor wt day 14” value in the series on HT-29 human colon tumor (0.8 mg/kg (optimal dose), vehicle b (PBS/DMSO/Tween 80), vehicle control 21.8) stood at 1.8. The molecule also came in with an IC50 against topoisomerase Type I of less than 500 nM. Regarding `CC[C@@]1(O)C(=O)OCc2c1cc1n(c2=O)Cc2c-1nc1cc3c(cc1c2CN1CCC1)OCO3` [Example 20, 7-Azetidinomethylene-10, 11-methylenedioxy-20(S)-camptothecin], the “tumor wt day 50 / tumor wt day 14” value in the series with HT-29 human colon tumor (1.5 mg/kg (optimal dose), vehicle a (0.1M acetate buffer, pH 5), vehicle control 20.0) came out at 1.5.

Molecule `CCC1(O)C(=O)OCc2c1cc1n(c2=O)Cc2c-1nc1cc3c(cc1c2CN(CCO)CCO)OCCO3` (racemic) [Example 17, 7-Diethanolaminomethylene-10, 11-ethylenedioxy-20(R,S)-camptothecin] had an IC50 on topoisomerase Type I of less than 500 nM. In the case of `CC[C@@]1(O)C(=O)OCc2c1cc1n(c2=O)Cc2c-1nc1cc3c(cc1c2CN1CCN(C)CC1)OCO3` [Example 23, 7-(4-Methylpiperazinomethylene)-10, 11-methylenedioxy-20(S)-camptothecin], the “tumor wt day 50 / tumor wt day 14” value in the series with HT-29 human colon tumor (3.0 mg/kg (optimal dose), vehicle a (0.1M acetate buffer, pH 5), vehicle control 20.0) turned out to be 0.5. Moreover, the “effect on tumor (stasis / regression)” value in the series with HT-29 human colon tumor is listed as “tumor regression”.

The molecule `CCC1(O)C(=O)OCc2c1cc1n(c2=O)Cc2c-1nc1cc3c(cc1c2CN1CCOCC1)OCCO3` (racemic) [Example 5, 7-Morpholinomethylene-10,11-ethylenedioxy-20(R,S)-camptothecin] registered an IC50 at topoisomerase Type I of less than 500 nM. On to `CCC1(O)C(=O)OCc2c1cc1n(c2=O)Cc2c-1nc1cc3c(cc1c2CN(C)C)OCO3` (racemic) [Example 1], for which the IC50 on topoisomerase Type I (read-out: Relative IC50 (concentration at which 50% of the DNA substrate has been captured by topoisomerase I), Cleavable Complex Assay) is less than 500 nM. For the molecule `CC[C@@]1(O)C(=O)OCc2c1cc1n(c2=O)Cc2c-1nc1cc3c(cc1c2CN(C)C)OCCO3` [Example 4, 7-Dimethylaminomethylene-10, 11-ethylenedioxy-20(S)-camptothecin], the “tumor wt day 50 / tumor wt day 14” value in the series with HT-29 human colon tumor (7.0 mg/kg (optimal dose), vehicle a (0.1M acetate buffer, pH 5), vehicle control 20.0) stood at 1.3; with HT-29 human colon tumor (7.0 mg/kg (optimal dose), vehicle b (PBS/DMSO/Tween 80), vehicle control 21.8) it was 1.0. The “effect on tumor (stasis / regression)” value in the series with HT-29 human colon tumor was “tumor stasis”. Moreover, at topoisomerase Type I, the IC50 fell in the range of 500 to 1000 nM.
